Experimental data published in paper PMC7689813 (Journal of Clinical Pharmacology, 2020).
“And” between values parts separate entries of the source, which are not always exact repeats. Equal entries are not always repeated. “Also recorded” adds a separate entry of the source.

What was measured:
[1] = Clinical DDI study: elagolix and sertraline
[2] = target: P‐gp (Homo sapiens, UniProt P08183); experiment: Clinical DDI study: elagolix effect on digoxin
[3] = tested on: CYP2B6; experiment: Clinical DDI study: elagolix effect on bupropion; format: in vivo, human; conditions: for Change in AUC values / Increase in Cmax: single dose bupropion after 10 days of elagolix 300 mg twice daily
[4] = tested on: OATP1B1/B3 and BCRP; experiment: Clinical DDI study: elagolix and rosuvastatin; format: in vivo, human; conditions: for Increase in rosuvastatin Cmax: first (single) dose of elagolix 300 mg
[5] = Clinical DDI study: elagolix and fluconazole
[6] = tested on: OATP1B1; conditions: cited from earlier work
[7] = tested on: CYP2C19; conditions: cited from earlier work
[8] = tested on: CYP3A and P‐gp; experiment: Clinical DDI study: ketoconazole effect on elagolix; format: in vivo, human
[9] = tested on: CYP3A; experiment: Clinical DDI study: elagolix 300 mg twice daily effect on midazolam
[10] = tested on: P‐gp; conditions: cited from earlier work
[11] = cited from earlier work
[12] = tested on: CYP2C19; conditions: cited from earlier work; remark: listed apart in the source
[13] = Safety and tolerability in the 9 phase 1 DDI studies; format: in vivo, human; conditions: for Participants reporting 1 or more TEAE: ketoconazole study
[14] = tested on: CYP3A4; conditions: cited from earlier work
[15] = tested on: breast cancer resistance protein (BCRP); conditions: cited from earlier work
[16] = background; cited from earlier work
[17] = tested on: OATP1B1, CYP3A and P‐gp; experiment: Clinical DDI study: single and multiple dose rifampin effect on elagolix
[18] = tested on: CYP3A; experiment: Clinical DDI study: elagolix 150 mg once daily effect on midazolam; conditions: male participants
[19] = multiple doses of elagolix 300 mg twice daily
[20] = either single dose or multiple doses (10 days) of elagolix 200 mg twice daily
[21] = multiple doses of rifampin (dosing for 10 days) vs elagolix alone
[22] = first dose of elagolix 300 mg twice daily, female participants

Chain of P‐gp (Homo sapiens, UniProt P08183) (P08183 whole entry): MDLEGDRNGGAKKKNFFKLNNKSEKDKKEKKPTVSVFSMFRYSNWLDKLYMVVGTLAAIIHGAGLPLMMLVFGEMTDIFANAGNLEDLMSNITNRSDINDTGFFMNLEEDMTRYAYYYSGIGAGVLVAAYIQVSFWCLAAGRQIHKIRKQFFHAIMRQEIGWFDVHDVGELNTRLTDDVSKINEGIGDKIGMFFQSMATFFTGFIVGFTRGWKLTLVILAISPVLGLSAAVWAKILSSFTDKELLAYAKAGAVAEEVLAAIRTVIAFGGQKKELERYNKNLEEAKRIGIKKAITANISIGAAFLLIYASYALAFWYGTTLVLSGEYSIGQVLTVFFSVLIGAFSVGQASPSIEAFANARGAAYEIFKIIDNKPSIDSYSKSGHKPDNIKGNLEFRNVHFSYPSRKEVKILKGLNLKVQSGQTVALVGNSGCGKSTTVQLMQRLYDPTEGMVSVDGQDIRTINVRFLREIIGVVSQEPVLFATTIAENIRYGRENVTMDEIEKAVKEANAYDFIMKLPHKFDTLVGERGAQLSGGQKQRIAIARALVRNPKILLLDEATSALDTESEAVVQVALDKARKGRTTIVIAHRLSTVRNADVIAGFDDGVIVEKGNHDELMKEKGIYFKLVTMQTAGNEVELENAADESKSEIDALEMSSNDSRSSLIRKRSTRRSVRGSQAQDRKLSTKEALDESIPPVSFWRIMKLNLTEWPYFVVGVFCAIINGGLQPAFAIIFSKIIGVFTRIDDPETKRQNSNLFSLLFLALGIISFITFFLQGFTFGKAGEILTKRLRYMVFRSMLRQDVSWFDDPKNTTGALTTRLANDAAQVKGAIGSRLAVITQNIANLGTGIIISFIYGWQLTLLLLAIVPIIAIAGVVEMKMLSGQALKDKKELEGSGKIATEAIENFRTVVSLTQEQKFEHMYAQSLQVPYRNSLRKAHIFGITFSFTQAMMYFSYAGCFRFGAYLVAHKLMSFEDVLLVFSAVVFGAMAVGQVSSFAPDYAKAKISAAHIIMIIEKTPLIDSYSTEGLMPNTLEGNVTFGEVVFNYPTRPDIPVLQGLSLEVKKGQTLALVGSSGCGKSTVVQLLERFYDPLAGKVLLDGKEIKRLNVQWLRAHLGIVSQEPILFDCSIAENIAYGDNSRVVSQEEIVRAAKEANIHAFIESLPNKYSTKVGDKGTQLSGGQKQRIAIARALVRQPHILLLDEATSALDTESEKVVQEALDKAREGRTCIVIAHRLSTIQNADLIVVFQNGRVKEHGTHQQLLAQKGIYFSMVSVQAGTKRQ

With `CN[C@H]1CC[C@@H](c2ccc(Cl)c(Cl)c2)c2ccccc21` [sertraline, reference compound] the “Changes in exposure on coadministration of elagolix with sertraline” value ([1]; abstract summary) was “No clinically significant changes in exposure” and the “Increase in sertraline steady‐state Cmax” value [1, 19] was 34%.

In the case of `C[C@H]1O[C@@H](O[C@H]2[C@@H](O)C[C@H](O[C@H]3[C@@H](O)C[C@H](O[C@H]4CC[C@@]5(C)[C@H](CC[C@@H]6[C@@H]5C[C@@H](O)[C@]5(C)[C@@H](C7=CC(=O)OC7)CC[C@]65O)C4)O[C@@H]3C)O[C@@H]2C)C[C@H](O)[C@@H]1O` [digoxin], the “Increase in digoxin AUC” value [2, 20] is reported as roughly 30%, the “Increase in digoxin Cmax” value [2, 20] is reported as “approximately 70%” and the “Digoxin t½ alone vs in the presence of elagolix” value ([2]; elagolix 200 mg twice daily) is reported as “similar”.

For `C[C@H]1NC(C)(C)CO[C@]1(O)c1cccc(Cl)c1` [OH‐bupropion, hydroxybupropion], the “Change in AUC values” [3] was no more than 9% and the “Increase in Cmax” value [3] was 32%.

For `CC(NC(C)(C)C)C(=O)c1cccc(Cl)c1` (centres unmarked) [bupropion], the “Increase in bupropion PK” value ([3]; elagolix 300 mg twice daily) was no more than 25%, the “Change in AUC values” [3] was no more than 9% and the “Increase in Cmax” value [3] was 25%.

In the case of `CC(C)c1nc(N(C)S(C)(=O)=O)nc(-c2ccc(F)cc2)c1/C=C/[C@@H](O)C[C@@H](O)CC(=O)O` [rosuvastatin], the “Increase in rosuvastatin Cmax” value [4] is reported as “approximately 67%”, the “Increase in rosuvastatin Cmax” value ([4]; listed as Rosuvastatin) is reported as 67% and the “Change in rosuvastatin AUC” value ([4]; first dose of elagolix 300 mg twice daily) is reported as “no significant change”. The “Change in rosuvastatin Cmax (steady state)” value [4, 19] was “not significantly changed; also recorded: no change”.

In the case of `OC(Cn1cncn1)(Cn1cncn1)c1ccc(F)cc1F` [fluconazole], the “Changes in exposure on coadministration of elagolix with fluconazole” value ([5]; abstract summary) is reported as “No clinically significant changes in exposure” and the “Effect of elagolix on fluconazole exposures (Cmax and AUC)” value ([5]; elagolix 300 mg twice daily, fluconazole 200 mg single dose) is reported as “not affected; also recorded: did not affect”.

For `COc1cccc(-c2c(C)n(Cc3c(F)cccc3C(F)(F)F)c(=O)n(C[C@H](NCCCC(=O)O)c3ccccc3)c2=O)c1F` [elagolix, sodium R‐(+)‐4‐{2‐[5‐(2‐fluoro‐3‐methoxyphenyl)‐3‐(2‐fluoro‐6‐[trifluoromethyl]benzyl)‐4 ‐methyl‐2,6‐dioxo‐3,6‐dihydro‐2H‐pyrimidin‐1‐yl]‐1‐phenylethylamino}butyrate], the “Increase in elagolix steady‐state Cmax” value ([5]; 10 days of elagolix 300 mg twice daily, single dose of fluconazole 200 mg) is given as “approximately 30%”, the “In vitro effect on OATP1B1” value [6] is given as “inhibitor” and the “In vitro effect on CYP2C19” value [7] is given as “inhibitor”. For the same molecule, the “Classification of elagolix as CYP3A (or P‐gp) substrate” value ([8]; based on ketoconazole study vs FDA criterion (≥5‐fold increase)) was “not considered a sensitive CYP3A substrate”, the “Elagolix half‐life with vs without ketoconazole coadministration” value ([8]; elagolix 150 mg single dose, ketoconazole 400 mg once daily) was “similar” and the “Effect of rosuvastatin on elagolix exposure” value ([4]; rosuvastatin 20 mg once daily, elagolix 300 mg twice daily) was “no effect”. For the same molecule, the “Classification of elagolix as inducer of CYP3A” value ([9]; depending on the dose administered (150 mg once daily, 300 mg twice daily), midazolam studies) was “weak or moderate inducer; also recorded: weak to moderate inducer”, the “Classification of elagolix as inhibitor of efflux transporter P‐gp” value ([2]; mechanistic clinical studies) was “weak inhibitor” and the “In vitro effect on P‐gp” value [10] was “inhibitor”. The “Excreted unchanged in urine” value [11] was “less than 3%”, the “Plasma exposure of elagolix metabolites relative to the parent compound” value [11] was “less than 3%” and the “Dose proportionality of exposure” value ([11]; from 100 to 400 mg twice daily) was “approximately dose proportional”. The “Apparent terminal‐phase elimination half‐life (t½)” value ([11]; oral) was 4 to 6 h, the “Time to mean maximum observed plasma concentration (Tmax)” value ([11]; oral) was “approximately 1 hour” and the “Classification of elagolix as inhibitor of CYP2C19” value [12] was “weak inhibitor”. The “Effect of sertraline on elagolix plasma exposures (Cmax and AUC)” value ([1]; single‐dose 300‐mg elagolix, sertraline 25 mg once daily for 10 days) was “not affected; also recorded: did not affect”, the “Changes in vital sign values, ECG parameters, physical examination findings, laboratory measurements” value ([13]; across all studies) was “no clinically significant changes” and the “Most common adverse events assessed as mild and reasonably related to elagolix” value ([13]; across all studies) was “hot flush, headache, nausea, and amenorrhea”. The “Severe adverse events (all assessed as not related to elagolix)” value ([13]; across all studies) was 3, the Tolerability ([13]; elagolix and coadministered drugs across regimens, 144 female and male participants, 9 phase 1 studies) was “generally well tolerated” and the “Participants reporting 1 or more TEAE” value ([13]; elagolix‐alone portion of the test regimen) was “zero”. The “In vitro effect on CYP3A4” value [14] was “inducer”, the “In vitro metabolism (enzyme)” value [14] was “metabolized primarily by the cytochrome P450 (CYP) enzyme CYP3A4” and the “In vitro effect on BCRP” value [15] was “inhibitor”. For the same molecule, the “Common adverse reactions associated with elagolix” value [16] was “hot flush, headache, and nausea”, the “Increase in elagolix exposures (Cmax and AUC)” value ([17]; multiple days of rifampin dosing) was no more than 2 fold and the “Increase in elagolix AUC” value [17, 21] was ~2 fold and 1.7 fold. The “Increase in elagolix Cmax” value [17, 21] was 2.0 fold, the “Increase in elagolix exposures (Cmax and AUC)” value ([17]; single dose of rifampin) was < 6 fold and > 4.4 fold and the “Increase in elagolix Cmax” value ([17]; with a single dose of rifampin 600 mg vs elagolix alone) was 4.4 fold.

With `Cc1ncc2n1-c1ccc(Cl)cc1C(c1ccccc1F)=NC2` [midazolam] the “Decrease in midazolam AUC” value ([18]; multiple doses of elagolix 150 mg once daily) was roughly 35%, the “Decrease in midazolam AUC” value ([18]; single dose of elagolix 150 mg once daily) was “approximately 21%” and the “Increase in midazolam AUC” value [9, 22] was roughly 27%. For the same molecule, the “Increase in midazolam Cmax” value [9, 22] was “approximately 18%” and the “Decrease in midazolam Cmax” value ([9]; multiple doses of elagolix 300 mg twice daily (11 days of dosing), female participants) was “approximately 44%”.

In the case of `CC(=O)N1CCN(c2ccc(OCC3COC(Cn4ccnc4)(c4ccc(Cl)cc4Cl)O3)cc2)CC1` (centres unmarked) [ketoconazole, reference compound], the “Participants reporting 1 or more TEAE” value ([13]; ketoconazole‐alone portion of the test regimen) is reported as 82%.

For `OCc1ncc2n1-c1ccc(Cl)cc1C(c1ccccc1F)=NC2` [1‐OH‐midazolam, 1-hydroxymidazolam], the “Increase in 1‐OH‐midazolam exposures” value ([18]; elagolix 150 mg once daily) was “up to 11%”.
